Experimental data reported in patent US20200368312A1 (priority 2017, published 2020).
≈ marks a conversion by molar mass, not a printed value. Where two headings read alike, the source gives them in different places.

Columns and labels:
Type in all cases: cell-based
Streptococci = assay: Broth microdilution MIC, Streptococci (Example 11, Table 7)
Clostridium difficile = assay: Broth microdilution MIC, C. difficile, anaerobic, supplemented Brucella Broth (Example 11, Table 7)
S. haemolyticus (CoNS) = assay: Broth microdilution MIC, S. haemolyticus (CoNS) (Table 7); details: S. haemolyticus (CoNS) MMX 529 ATCC 29970
P. acnes = assay: Broth microdilution MIC, P. acnes (Table 7)
P. anaerobius = assay: Broth microdilution MIC, P. anaerobius (Table 7); details: P. anaerobius MMX 1208 ATCC 27337
S. hominis (CoNS) = assay: Broth microdilution MIC, S. hominis (CoNS) (Table 7); details: S. hominis (CoNS) MMX 667 ATCC 27844
Staphylococcus aureus = assay: microbe, parasite or virus in culture; details: for MIC: Staphylococcus aureus
S. lugdenensis (CoNS) = assay: Broth microdilution MIC, S. lugdenensis (CoNS) (Table 7); details: S. lugdenensis (CoNS) MMX 8724
E. lenta = assay: Broth microdilution MIC, E. lenta (Table 7); details: E. lenta MMX 1287 ATCC 43055
P. micros = assay: Broth microdilution MIC, P. micros (Table 7); details: P. micros MMX 3546
S. epidermidis (CoNS) = assay: Broth microdilution MIC, S. epidermidis (CoNS) (Table 7)
Enterococci = tested on: Enterococci
C. perfringens = C. perfringens MMX 8351 ATCC 13124

`CN(C)c1cc(NC(=O)CNC(C)(C)C)c(O)c2c1C[C@H]1C[C@H]3[C@H](N(C)C)C(O)=C(C(N)=O)C(=O)[C@@]3(O)C(O)=C1C2=O` [Tigecycline] gave an MIC (Streptococci; S. agalactiae MMX 4088) of 0.03 µg/mL (≈ 0.0512 µM), an MIC (Streptococci; S. agalactiae MMX 4115, erm^R) of 0.03 µg/mL (≈ 0.0512 µM) and an MIC (Streptococci; S. anginosus (AGS) MMX 1201 ATCC 33397) of 0.008 µg/mL (≈ 0.0137 µM). It also gave an MIC (Streptococci; S. constellatus (AGS) MMX 5677) of 0.03 µg/mL (≈ 0.0512 µM), an MIC (Streptococci; S. dysgalactiae MMX 5121) of 0.06 µg/mL (≈ 0.102 µM) and an MIC (Streptococci; S. dysgalactiae MMX 5123) of 0.015 µg/mL (≈ 0.0256 µM). The MIC (Streptococci; S. dysgalactiae MMX 5124) was 0.12 µg/mL (≈ 0.205 µM), the MIC (Streptococci; S. mitis (MGS) MMX 5798) was 0.03 µg/mL (≈ 0.0512 µM) and the MIC (Streptococci; S. oralis (MGS) MMX 5821) was 0.06 µg/mL (≈ 0.102 µM). It also gave an MIC (Streptococci; S. pneumoniae MMX 432, PRSP) of 0.03 µg/mL (≈ 0.0512 µM), an MIC (Streptococci; S. pneumoniae MMX 747) of 0.03 µg/mL (≈ 0.0512 µM) and an MIC (Streptococci; S. pneumoniae MMX 1195 ATCC 49619, PISP) of 0.06 µg/mL (≈ 0.102 µM). For the same compound, the MIC (Streptococci; S. pyogenes MMX 404 ATCC 19615) was 0.015 µg/mL (≈ 0.0256 µM), the MIC (Streptococci; S. pyogenes MMX 946, ermR) was 0.015 µg/mL (≈ 0.0256 µM) and the MIC (Streptococci; S. pyogenes MMX 8778) was 0.03 µg/mL (≈ 0.0512 µM). It also gave an MIC (Clostridium difficile; C. difficile MMX 4381 ATCC 700057, toxinAB-negative) of 0.18 µg/mL (≈ 0.307 µM), an MIC (Clostridium difficile; C. difficile MMX 4994 ATCC BAA-1805, ribotype 027) of 0.03 µg/mL (≈ 0.0512 µM) and an MIC (Clostridium difficile; C. difficile MMX 5668 ATCC BAA-1870, NAP1/027) of 0.03 µg/mL (≈ 0.0512 µM). It also gave an MIC (S. haemolyticus (CoNS)) of 0.06 µg/mL (≈ 0.102 µM), an MIC (P. acnes; P. acnes MMX 7942 ATCC 6919) of 0.03 µg/mL (≈ 0.0512 µM) and an MIC (P. acnes; P. acnes MMX 7946 ATCC 11827) of 0.03 µg/mL (≈ 0.0512 µM). The MIC (P. anaerobius) was 0.03 µg/mL (≈ 0.0512 µM), the MIC (S. hominis (CoNS)) was 0.12 µg/mL (≈ 0.205 µM) and the “RV40 activity as compared to Comparator” value (Staphylococcus aureus; MRSA strains (Table 5), […]) was 16 ×. For the same compound, the MIC (Staphylococcus aureus; ATCC 29213 / MSSA, S. aureus MMX 100 ATCC 29213, MSSA (quality control)) was 0.25 µg/mL (≈ 0.427 µM), the MIC (Staphylococcus aureus; ATCC 33591 / MRSA, S. aureus MMX 5717 ATCC 33591, MRSA) was 0.25 µg/mL (≈ 0.427 µM) and the MIC (Staphylococcus aureus; ATCC BAA-1556 / MRSA, S. aureus MMX 4675 ATCC BAA-1556, MRSA) was 0.12 µg/mL (≈ 0.205 µM). For the same compound, the MIC (Staphylococcus aureus; ATCC BAA-1756 / MRSA, S. aureus MMX 2011 ATCC BAA-1756, MRSA) was 0.12 µg/mL (≈ 0.205 µM), the MIC (Staphylococcus aureus; MRSA, S. aureus MMX 2010, MRSA) was 0.09 µg/mL (≈ 0.154 µM) and the MIC (Staphylococcus aureus; MRSA, S. aureus MMX 3982, MRSA) was 0.185 µg/mL (≈ 0.316 µM). For the same compound, the MIC (Staphylococcus aureus; MRSA, S. aureus MMX 5985, MRSA) was 0.185 µg/mL (≈ 0.316 µM), the MIC (Staphylococcus aureus; MRSA, S. aureus MMX 5999, MRSA) was 0.12 µg/mL (≈ 0.205 µM) and the MIC (Staphylococcus aureus; MRSA, S. aureus MMX 7899, MRSA) was 0.12 µg/mL (≈ 0.205 µM). It also gave an MIC (Staphylococcus aureus; MRSA, S. aureus MMX 7900, MRSA) of 0.185 µg/mL (≈ 0.316 µM), an MIC (Staphylococcus aureus; MRSA, S. aureus MMX 7901, MRSA) of 0.12 µg/mL (≈ 0.205 µM) and an MIC (Staphylococcus aureus; MRSA, S. aureus MMX 7902, MRSA) of 0.12 µg/mL (≈ 0.205 µM). For the same compound, the MIC (Staphylococcus aureus; MRSA, S. aureus MMX 7903, MRSA) was 0.12 µg/mL (≈ 0.205 µM), the MIC (Staphylococcus aureus; MSSA, S. aureus MMX 2490, MSSA) was 0.12 µg/mL (≈ 0.205 µM) and the MIC (Staphylococcus aureus; MSSA, S. aureus MMX 7907, MSSA) was 0.12 µg/mL (≈ 0.205 µM). The MIC (Staphylococcus aureus; MSSA, S. aureus MMX 7908, MSSA) was 0.12 µg/mL (≈ 0.205 µM), the MIC (Staphylococcus aureus; S. aureus MMX 4665, hVISA) was 0.25 µg/mL (≈ 0.427 µM) and the MIC (Staphylococcus aureus; S. aureus MMX 5989, Mu3, hVISA) was 0.75 µg/mL (≈ 1.28 µM). It also gave an MIC (Staphylococcus aureus; VISA, S. aureus MMX 1723, Mu50) of 0.5 µg/mL (≈ 0.854 µM), an MIC (Staphylococcus aureus; VISA, S. aureus MMX 2124, VISA, DaptoNS) of 0.045 µg/mL (≈ 0.0768 µM) and an MIC (Staphylococcus aureus; VISA, S. aureus MMX 4658, VISA) of 0.12 µg/mL (≈ 0.205 µM). It also gave an MIC (Staphylococcus aureus; VISA, S. aureus MMX 4660, VISA) of 0.09 µg/mL (≈ 0.154 µM), an MIC (S. lugdenensis (CoNS)) of 0.06 µg/mL (≈ 0.102 µM) and an MIC (E. lenta) of 0.25 µg/mL (≈ 0.427 µM). For the same compound, the MIC (P. micros) was 0.015 µg/mL (≈ 0.0256 µM), the MIC (S. epidermidis (CoNS); S. epidermidis (CoNS) MMX 762, MRSE) was 0.06 µg/mL (≈ 0.102 µM) and the MIC (S. epidermidis (CoNS); S. epidermidis (CoNS) MMX 5145, MRSE) was 0.12 µg/mL (≈ 0.205 µM). The MIC (Enterococci; E. faecalis MMX 101 ATCC 29212, VSE) was 0.06 µg/mL (≈ 0.102 µM), the MIC (Enterococci; E. faecalis MMX 1086, VanA VRE) was 0.12 µg/mL (≈ 0.205 µM) and the MIC (Enterococci; E. faecalis MMX 4176) was 0.12 µg/mL (≈ 0.205 µM). It also gave an MIC (Enterococci; E. faecium MMX 173, VanB VRE) of 0.06 µg/mL (≈ 0.102 µM), an MIC (Enterococci; E. faecium MMX 851, VanA VRE) of 0.06 µg/mL (≈ 0.102 µM) and an MIC (Enterococci; E. faecium MMX 4204) of 0.06 µg/mL (≈ 0.102 µM). For the same compound, the MIC (C. perfringens) was 0.12 µg/mL (≈ 0.205 µM).
